The values that follow come from patent US20180023041A1, “CLEANING COMPOSITIONS CONTAINING A DIAMINOSTILBENE BRIGHTENER” (The Procter & Gamble Company, priority 2016, published 2018).

The nature of the series: Dissolution of brightener from granular laundry detergent formulations in hardness water, UV-Vis absorbance of filtered solution at 350 nm. The class given is physicochemical. The settings on record: in comparison with the control formulation with LAS only; in words.

Description: The total surfactant levels for Formulations A-H are maintained the same at 20 wt %.
Prepare 10 gpg hardness water (Ca:Mg=3:1) and place 1L of such hardness water in each of 8 beakers separately. Weight a 6.12g sample from each of the Formulations A-H hereabove respectively, and put the samples into beakers with hardness water on the maganetic stirrers. Stir for 15 mins to dissolve the sample.
Take about 8 ml solution by using a 10m1 injection syringe. Install a 0.45pm filter on the injection syringe for filtering the solution when it is injected out of the syringe. Inject the filtered solution into a sample cuvette of the UV-Vis spectrophotometer. Place the sample cuvette in a measuring position of the UV-Vis spectrophotometer. Read and record the absorbance (ABS) of solutions at a UV wavelength of 350nm respectively.

On to `O=S(=O)([O-])c1ccccc1C=Cc1ccc(-c2ccc(C=Cc3ccccc3S(=O)(=O)[O-])cc2)cc1.[Na+].[Na+]` [Florescent Brigthener 351, disodium 2,2′-([1,1′-biphenyl]-4,4′-diyldivinylene)bis(benzenesulphonate)], for which the “dissolution of the brightener in a surfactant system containing LAS, mid-cut AS, and soap” value is recorded as “much less”.
